Data reported in patent US20050074820A1, “Method for the immunohistological detection of fibrogenesis in histological tissue sections using antiboides against C-terminal procollagen alpha1 (III) propeptide” (priority 2001, published 2005).

Experiments:
[1] = test system: hepatitis B virus (HBV) DNA; assay: HBV DNA concentration before and after treatment; assay type: in vivo
[2] = test system: hepatitis B e-antigen (HBeAg); assay: Loss of hepatitis B e-antigen under treatment; assay type: in vivo, hepatitis B virus; conditions: lamivudine 100 mg daily, 52 weeks; versus 9% placebo, p<0.05
Source text: The liver tissue samples were examined by a pathologist. […] A reduction of the HAI by 2 points HAI is considered a significant change in hepatic histology after the termination of the treatment.
The baselines and the quantitative immunostains against α-SMA und PIIICP were compared between lamivudine und placebo patients using Student's t-tests. In addition, the results of the immunostains were correlated with the loss of the hepatitis B e-antigen (HBeAg) using the Mantel-Haenszel chi square test.

PIIICP = assay: Quantitative immunostain of PIIICP in liver tissue sections (image analysis); assay type: in vivo, human; conditions: for PIIICP expression (stained area over total area): all lamivudine patients; for PIIICP expression: lamivudine-treated, Pre
Description: (§1) Paraffin-embedded tissue sections were stained for α-smooth muscle actin (α-SMA) or PIIICP (FIG. 2). The staining procedure was carried out using the DAKO Envision System (DAKO; Carpinteria, Calif., USA). After inhibiting endogenous peroxidase with Peroxidase Blocking Agent (DAKO) the tissue sections were incubated for 10 minutes at room temperature with a murine monoclonal anti-α-SMA antibody (diluted 1:200 in PBS+1% BSA) or with a murine monoclonal anti-PIIICP antibody (antibody concentration 5 mg/ml; diluted 1:100 in PBS+1% BSA). After the incubation, the sections were washed twice with PBS buffer for 3 minutes, respectively. The tissue sections were then incubated with labelled polymer (peroxidase-labelled polymer conjugated with anti-rabbit and anti-mouse immunoglobulins from the goat) at room temperature for 10 minutes. After washing twice with PBS buffer the tissue sections were incubated with 3,3-diaminobenzidine (DAB) substrate for 8 minutes, rinsed with water and exposed to DAB Enhancer (Innovex Bioscience; Richmond, Calif., USA) for 5 minutes and subsequently rinsed with water again. Counterstaining was performed with hematoxyline. As a negative control all samples were incubated with 1% BSA solution instead of antibody.
(§2) The stained parenchymal areas on the tissue sections, that are formed by α-SMA or PIIICP-positive hepatic stellate cells, were quantified with the Bioquant TCW 98 image analysis program (Bioquant Image Analysis; www.bioquant.com) with the connected Computer as well as with an Olympus microscope. The results were stated as the percent ratio between the stained area and the total area.
(§3) The immunohistochemical quantification was futhermore correlated with changes of individual components of the histological activity index (HAI) or with entire HAI. For the individual patients in both treatment groups—lamivudine or placebo, respectively—the change of α-SMA- or PIIICP-stained areas was calculated according to: ΔSMA (or ΔPIIICP)=percent area before treatment minus percent […]. The mean change was compared between the lamivudine-treated and the placebo-treated groups using Student's t-Test.

α-SMA = assay: Quantitative immunostain of α-SMA in liver tissue sections (image analysis); assay type: in vivo, human; conditions: for α-SMA expression (stained area over total area): all lamivudine patients; for α-SMA expression: lamivudine-treated, Pre
Description: as §1, §2, §3

[3] = test system: patients with chronic hepatitis B; assay: Serum ALT before and after 52 weeks of treatment, phase III trials; assay type: in vivo, human
[4] = lamivudine group n = 47, Post (100 mg daily, 52 weeks)

Nc1ccn([C@@H]2CS[C@H](CO)O2)c(=O)n1 [Lamivudine, lamivudine]
HBV DNA [1, 4]: 33 ± 120 pg/mL | HBV DNA ([1]; lamivudine group n = 47, Pre (before treatment)): 180 ± 211^ψ pg/ml | patients who lost the HbeAg [2]: 36.2% | PIIICP expression (stained area over total area) (PIIICP; after lamivudine): 0.02% | PIIICP expression (stained area over total area) (PIIICP; before lamivudine): 0.06% | PIIICP expression (PIIICP; HbeAg loss (n = 17)): 0.10 | PIIICP expression (PIIICP; No loss of HbeAg (n = 30)): 0.03 | α-SMA expression (stained area over total area) (α-SMA; after treatment): 0.58±0.11% | α-SMA expression (stained area over total area) (α-SMA; before treatment): 1.06±0.23% | α-SMA expression (α-SMA; HbeAg loss (n = 17)): 1.46 | α-SMA expression (α-SMA; No loss of HbeAg (n = 30)): 0.83 | ALT (mean ± SD) ([3]; chronic hepatitis B patients, lamivudine group n = 47, Pre (before treatment)): 154 ± 100 IU/l | ALT (mean ± SD) [3, 4]: 60.7 ± 55 IU/l
